Measured values taken from ChEMBL document CHEMBL4219156, “Synthesis, evaluation and CoMFA/CoMSIA study of nitrofuranyl methyl N-heterocycles as novel antitubercular agents” (2018).
In brackets after ≈: the same amount, converted by molar mass.

Tested on: Mycobacterium tuberculosis
Assay: Antitubercular activity against Mycobacterium tuberculosis H37Rv ATCC 27294 after 7 days by MABA
Format: functional
Parameters: -logMIC: unit not given here
Details: for MIC: Mycobacterium tuberculosis, H37Rv ATCC 27294, 168 h

SMILES	-logMIC	MIC
CON=C1CCN(Cc2ccc([N+](=O)[O-])o2)CC1	2.701	1.99 µg/mL (≈ 7.85 µM)
O=[N+]([O-])c1ccc(CN2CCC(=NOCc3ccc(C(F)(F)F)cc3)CC2)o1	3.673	0.212 µg/mL (≈ 0.534 µM)
O=[N+]([O-])c1ccc(CN2Cc3ccc(F)cc3C2)o1	3.31	0.49 µg/mL (≈ 1.87 µM)
COc1ccc2c(c1)CN(Cc1ccc([N+](=O)[O-])o1)CC2	3.918	0.121 µg/mL (≈ 0.42 µM)
O=[N+]([O-])c1ccc(CN2CCC(=NOCc3ccccc3)CC2)o1	3.608	0.247 µg/mL (≈ 0.75 µM)
CCOC(=O)CN1CCN(Cc2ccc([N+](=O)[O-])o2)CC1	2.414	3.85 µg/mL (≈ 13 µM)
O=[N+]([O-])c1ccc(S(=O)(=O)N2CC3CN(Cc4ccc([N+](=O)[O-])o4)CC3C2)cc1 (stereo not drawn)		0.235 µg/mL (≈ 0.556 µM)
CC(C)(C)c1ccc(N2CCN(Cc3ccc([N+](=O)[O-])o3)CC2)cc1	4.796	0.016 µg/mL (≈ 0.0466 µM)
O=[N+]([O-])c1ccc(CON=C2CCN(Cc3ccc([N+](=O)[O-])o3)CC2)cc1	3.742	0.181 µg/mL (≈ 0.484 µM)
CC(=O)CN1CCN(Cc2ccc([N+](=O)[O-])o2)CC1	2.117	7.63 µg/mL (≈ 28.6 µM)
CN(C)C(=O)CN1CCN(Cc2ccc([N+](=O)[O-])o2)CC1	1.516	30.5 µg/mL (≈ 103 µM)
CCON=C1CCN(Cc2ccc([N+](=O)[O-])o2)CC1	3.029	0.935 µg/mL (≈ 3.5 µM)
CC(=O)N1CCN(Cc2ccc([N+](=O)[O-])o2)CC1	1.922	12 µg/mL (≈ 47.3 µM)
COc1ccc(C(=O)N2CCN(Cc3ccc([N+](=O)[O-])o3)CC2)cc1	3.408	0.391 µg/mL (≈ 1.13 µM)
O=C(C1CCCCC1)N1CC2CN(Cc3ccc([N+](=O)[O-])o3)CC2C1 (stereo not drawn)		7.68 µg/mL (≈ 22.1 µM)
O=C(C1CCCCC1)N1CCN(Cc2ccc([N+](=O)[O-])o2)CC1	3.621	0.239 µg/mL (≈ 0.744 µM)
O=[N+]([O-])c1ccc(CN2CCC(c3ccc(F)cc3)CC2)o1	3.337	0.46 µg/mL (≈ 1.51 µM)
O=[N+]([O-])c1ccc(CN2CCC3(CC2)CCN(S(=O)(=O)c2ccc(Cl)cc2)CC3)o1	4.51	0.031 µg/mL (≈ 0.0683 µM)
O=[N+]([O-])c1ccc(CN2CCC(c3ccc(C(F)(F)F)cc3)CC2)o1	2.609	2.46 µg/mL (≈ 6.94 µM)
O=[N+]([O-])c1ccc(CN2CCc3ccc(Cl)cc3C2)o1	3.962	0.109 µg/mL (≈ 0.372 µM)
CO[C@H]1/C=C/O[C@@]2(C)Oc3c(C)c(O)c4c(O)c(c(/C=N/N5CCN(C)CC5)c(O)c4c3C2=O)NC(=O)/C(C)=C\C=C\[C@H](C)[C@H](O)[C@@H](C)[C@@H](O)[C@@H](C)[C@H](OC(C)=O)[C@@H]1C [RIFAMPIN]		0.127 µg/mL (≈ 0.154 µM)
COc1ccc(CON=C2CCN(Cc3ccc([N+](=O)[O-])o3)CC2)cc1	4.293	0.051 µg/mL (≈ 0.142 µM)
O=C(C1CCCCC1)N1CCC2(CCN(Cc3ccc([N+](=O)[O-])o3)CC2)CC1		3.87 µg/mL (≈ 9.93 µM)
O=C(CN1CCN(Cc2ccc([N+](=O)[O-])o2)CC1)Oc1ccccc1	3.325	0.473 µg/mL (≈ 1.37 µM)
O=[N+]([O-])c1ccc(CN2CCC(c3ccc(OC(F)(F)F)cc3)CC2)o1	3.303	0.497 µg/mL (≈ 1.34 µM)

SMILES	-logMIC	MIC
O=[N+]([O-])c1ccc(CN2CC3CN(S(=O)(=O)c4ccc(C(F)(F)F)cc4)CC3C2)o1 (stereo not drawn)		0.123 µg/mL (≈ 0.276 µM)
O=[N+]([O-])c1ccc(CN2CCC(c3ccc(Br)cc3)CC2)o1	3.31	0.49 µg/mL (≈ 1.34 µM)
O=[N+]([O-])c1ccc(CN2CCNCC2)o1	3.616	0.242 µg/mL (≈ 1.15 µM)
O=C(c1ccc(F)cc1)N1CCN(Cc2ccc([N+](=O)[O-])o2)CC1	2.779	1.66 µg/mL (≈ 4.99 µM)
CC(=O)N1CCC2(CCN(Cc3ccc([N+](=O)[O-])o3)CC2)CC1		32 µg/mL (≈ 99.6 µM)
CC(C)(C)c1ccc(N2CCC3(CCN(Cc4ccc([N+](=O)[O-])o4)CC3)CC2)cc1	>4.796	< 0.016 µg/mL
CC(C)CC(=O)N1CCC2(CCN(Cc3ccc([N+](=O)[O-])o3)CC2)CC1		2.41 µg/mL (≈ 6.63 µM)
O=C(c1ccccc1)N1CCN(Cc2ccc([N+](=O)[O-])o2)CC1	2.733	1.85 µg/mL (≈ 5.86 µM)
CC(C)(C)c1ccc(S(=O)(=O)N2CC3CN(Cc4ccc([N+](=O)[O-])o4)CC3C2)cc1 (stereo not drawn)		0.126 µg/mL (≈ 0.291 µM)
CCC(C)C(=O)N1CCN(Cc2ccc([N+](=O)[O-])o2)CC1 (stereo not drawn)	3.303	3.09 µg/mL (≈ 10.5 µM)
N#Cc1ccc2c(c1)CN(Cc1ccc([N+](=O)[O-])o1)C2	3.766	0.171 µg/mL (≈ 0.635 µM)
COc1ccc(C2CCN(Cc3ccc([N+](=O)[O-])o3)CC2)cc1	3.4	0.398 µg/mL (≈ 1.26 µM)
COc1ccc(S(=O)(=O)N2CC3CN(Cc4ccc([N+](=O)[O-])o4)CC3C2)cc1 (stereo not drawn)		0.405 µg/mL (≈ 0.994 µM)
O=C(CN1CCN(Cc2ccc([N+](=O)[O-])o2)CC1)Nc1ccccc1	1.99	10.2 µg/mL (≈ 29.7 µM)
CC(C)(C)OC(=O)CN1CCN(Cc2ccc([N+](=O)[O-])o2)CC1	2.514	3.06 µg/mL (≈ 9.4 µM)
CC(C)CC(=O)N1CCN(Cc2ccc([N+](=O)[O-])o2)CC1	2.51	0.498 µg/mL (≈ 1.69 µM)
CC(=O)CCN1CC2CN(Cc3ccc([N+](=O)[O-])o3)CC2C1 (stereo not drawn)		32 µg/mL (≈ 104 µM)
CC(C)(C)c1cccc(N2CCC3(CCN(Cc4ccc([N+](=O)[O-])o4)CC3)CC2)c1	>4.796	< 0.016 µg/mL
CNc1ccc(C(=O)N2CCN(Cc3ccc([N+](=O)[O-])o3)CC2)cc1	3.315	0.484 µg/mL (≈ 1.41 µM)
N#Cc1ccc2c(c1)CN(Cc1ccc([N+](=O)[O-])o1)CC2	3.988	0.103 µg/mL (≈ 0.364 µM)
NNC(=O)c1ccncc1 [ISONIAZID]		0.038 µg/mL (≈ 0.277 µM)
O=[N+]([O-])c1ccc(CN2CCc3ccc(Br)cc3C2)o1	4.206	0.062 µg/mL (≈ 0.184 µM)
CC(C)(C)C(=O)N1CC2CN(Cc3ccc([N+](=O)[O-])o3)CC2C1 (stereo not drawn)		1.55 µg/mL (≈ 4.81 µM)
O=[N+]([O-])c1ccc(CN2Cc3ccccc3C2)o1	2.749	1.78 µg/mL (≈ 7.3 µM)
CC(C)(C)C(=O)N1CCN(Cc2ccc([N+](=O)[O-])o2)CC1	3.023	0.948 µg/mL (≈ 3.21 µM)
